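All cell lines were grown in 96-well plates and treated with compound for 48 hours. The concentration for full growth arrest is given as TGI.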
Legend:
Assay in all cases: NCI tumour cell line growth inhibition, 48 h
[1] = test system: HOP-18 NSCLC
[2] = test system: NCI-H460 lung
[3] = test system: OVCAR-4 ovarian
[4] = test system: UACC-257 melanoma
[5] = test system: SN12C renal
[6] = test system: HCT-116 colon
[7] = test system: P388/ADR leukemia
[8] = test system: OVCAR-5 ovarian
[9] = test system: SK-MEL-2 melanoma
[10] = test system: A549 NSCLC
[11] = test system: LOX IMVI melanoma
[12] = test system: CCRF-CEM leukemia
[13] = test system: K-562 leukemia
[14] = test system: HT29 colon
[15] = test system: HL-60(TB) leukemia
[16] = test system: SK-OV-3 ovarian
[17] = test system: M19-MEL melanoma
[18] = test system: SNB-78 CNS
[19] = test system: UACC-62 melanoma
[20] = test system: HCT-15 colon
[21] = test system: NCI-H522 lung
[22] = test system: CAKI-1 renal
[23] = test system: KM20L2 colon
[24] = test system: NCI-H23 lung
[25] = test system: SNB-75 CNS
[26] = test system: SF-295 CNS
[27] = test system: RXF 393 renal
[28] = test system: SK-MEL-28 melanoma
[29] = test system: NCI-H226 lung
[30] = test system: MCF7 breast
[31] = test system: P388 leukemia
[32] = test system: IGROV1 ovarian
[33] = test system: HCC-2998 colon
[34] = test system: COLO 205 colon
[35] = test system: NCI/ADR-RES ovarian
[36] = test system: OVCAR-3 ovarian
[37] = test system: KM12 colon
[38] = test system: SF-539 CNS
[39] = test system: U251 CNS
[40] = test system: DLD-1 colon
[41] = test system: MALME-3M melanoma
[42] = test system: XF 498 CNS
[43] = test system: HOP-92 NSCLC
[44] = test system: UO-31 renal
[45] = test system: MOLT-4 leukemia
[46] = test system: OVCAR-8 ovarian
[47] = test system: SW-620 colon
[48] = test system: SN12K1 renal
[49] = test system: SF-268 CNS
[50] = test system: SK-MEL-5 melanoma
[51] = test system: A498 renal
[52] = test system: DMS 273 small cell lung
[53] = test system: SNB-19 CNS
[54] = test system: MDA-N
[55] = test system: M14 melanoma
[56] = test system: HS 578T breast
[57] = test system: MDA-MB-435
[58] = test system: HOP-62 NSCLC
[59] = test system: BT-549 breast
[60] = test system: PC-3 prostate
[61] = test system: EKVX NSCLC
[62] = test system: DU-145 prostate
[63] = test system: TK-10 renal
[64] = test system: ACHN renal
[65] = test system: SR leukemia
[66] = test system: T-47D breast
[67] = test system: DMS 114 small cell lung
[68] = test system: RPMI-8226 leukemia
[69] = test system: MDA-MB-231 breast
[70] = test system: 786-0 renal

O=P(NCCCO)(OCc1ccccc1)N(CCCl)CCCl (stereo not drawn)
TGI [1]: > 100 µM
TGI [2]: > 100 µM
TGI [3]: > 100 µM
TGI [4]: > 100 µM
TGI [5]: > 100 µM
TGI [6]: > 100 µM
TGI [7]: > 100 µM
TGI [8]: > 100 µM
TGI [9]: > 100 µM
TGI [10]: > 100 µM
TGI [11]: > 100 µM
TGI [12]: > 100 µM
TGI [13]: > 100 µM
TGI [14]: > 100 µM
TGI [15]: > 100 µM
TGI [16]: > 100 µM
TGI [17]: > 100 µM
TGI [18]: > 100 µM
TGI [19]: > 100 µM
TGI [20]: > 100 µM
TGI [21]: > 100 µM
TGI [22]: > 100 µM
TGI [23]: > 100 µM
TGI [24]: > 100 µM
TGI [25]: > 100 µM
TGI [26]: > 100 µM
TGI [27]: > 100 µM
TGI [28]: > 100 µM
TGI [29]: > 100 µM
TGI [30]: > 100 µM
TGI [31]: > 100 µM
TGI [32]: > 100 µM
TGI [33]: > 100 µM
TGI [34]: > 100 µM
TGI [35]: > 100 µM
TGI [36]: > 100 µM
TGI [37]: > 100 µM
TGI [38]: > 100 µM
TGI [39]: > 100 µM
TGI [40]: > 31.6 µM
TGI [41]: > 100 µM
TGI [42]: > 100 µM
TGI [43]: > 100 µM
TGI [44]: > 100 µM
TGI [45]: > 100 µM
TGI [46]: > 100 µM
TGI [47]: > 100 µM
TGI [48]: > 100 µM
TGI [49]: > 100 µM
TGI [50]: > 100 µM
TGI [51]: > 100 µM
TGI [52]: > 100 µM
TGI [53]: > 100 µM

NC1=NCN(C2OC(CO)C(O)C2O)C(=O)N1 (stereo not drawn)
TGI [1]: 1060 µM
TGI [54]: 381 µM
TGI [2]: 294 µM
TGI [55]: 405 µM
TGI [56]: 734 µM
TGI [3]: 1510 µM
TGI [4]: 1430 µM
TGI [5]: 1680 µM
TGI [6]: 143 µM
TGI [7]: 196 µM
TGI [57]: 154 µM
TGI [8]: 2150 µM
TGI [58]: 966 µM
TGI [9]: 7.06 µM
TGI [59]: 765 µM
TGI [10]: 1080 µM
TGI [60]: 1530 µM
TGI [11]: 135 µM
TGI [12]: 541 µM
TGI [13]: 788 µM
TGI [61]: 1870 µM
TGI [62]: 1330 µM
TGI [14]: 2000 µM
TGI [15]: 18.4 µM
TGI [16]: 943 µM
TGI [17]: 1760 µM
TGI [18]: 1780 µM
TGI [63]: 1730 µM
TGI [64]: 106 µM
TGI [19]: 241 µM
TGI [20]: 530 µM
TGI [21]: 144 µM
TGI [22]: 339 µM
TGI [23]: 1530 µM
TGI [24]: 1500 µM
TGI [25]: 392 µM
TGI [26]: 1460 µM
TGI [27]: 218 µM
TGI [28]: 1660 µM
TGI [65]: 278 µM
TGI [29]: 414 µM
TGI [30]: 328 µM
TGI [66]: 759 µM
TGI [31]: 229 µM
TGI [32]: 299 µM
TGI [33]: 1190 µM
TGI [67]: 437 µM
TGI [68]: 159 µM
TGI [34]: 584 µM
TGI [35]: 2270 µM
TGI [36]: 361 µM
TGI [37]: 674 µM
TGI [38]: 342 µM
TGI [39]: 2410 µM
TGI [40]: 1560 µM
TGI [41]: 128 µM
TGI [42]: 197 µM
TGI [43]: 1990 µM
TGI [69]: 568 µM
TGI [44]: 872 µM
TGI [45]: 152 µM
TGI [46]: 1870 µM
TGI [47]: 1340 µM
TGI [48]: 619 µM
TGI [49]: 2460 µM
TGI [50]: 335 µM
TGI [51]: 804 µM
TGI [52]: 620 µM
TGI [53]: 2220 µM
TGI [70]: 2050 µM
